Laboratory results as given in PubChem BioAssay AID330 (DTP/NCI, 2004).
“And” between values parts separate entries of the source, which are not always exact repeats. Identical values can stand only once. Toxic doses and inconclusive results are not listed. How the source made its calls: active means survival T/C of 150% or more; inactive means T/C below 125% in these data.

System: P388 leukemia ip, CD2F1 mice, survival T/C
Experiment: NCI In Vivo Anticancer Drug Screen. Data for tumor model P388 Leukemia (intraperitoneal) in CD2F1 (CDF1) mice
Conditions: endpoint: median survival time, higher = longer survival
How it was run: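 Mice carrying the transplanted tumor received test compound or vehicle. Survival was recorded in each group, and the value is the treated-group measurement divided by that of the vehicle-treated control group.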

[1] = dose: 50.0 mg/kg/injection, schedule: Q01DX005 (ip), vehicle: saline with Tween-80
[2] = dose: 100.0 mg/kg/injection, schedule: Q01DX005 (ip), vehicle: saline with Tween-80
[3] = dose: 200.0 mg/kg/injection, schedule: Q01DX005 (ip), vehicle: saline with Tween-80
[4] = dose: 50.0 mg/kg/injection, schedule: Q01DX005 (ip), vehicle: Klucel (hydroxypropylcellulose) (HPC)
[5] = dose: 100.0 mg/kg/injection, schedule: Q01DX005 (ip), vehicle: Klucel (hydroxypropylcellulose) (HPC)
[6] = dose: 200.0 mg/kg/injection, schedule: Q01DX005 (ip), vehicle: Klucel (hydroxypropylcellulose) (HPC)
[7] = dose: 60.0 mg/kg/injection, schedule: Q01DX005 (ip), vehicle: saline with Tween-80
[8] = dose: 120.0 mg/kg/injection, schedule: Q01DX005 (ip), vehicle: saline with Tween-80
[9] = dose: 100.0 mg/kg/injection, schedule: Q01DX009 (ip), vehicle: saline with Tween-80
[10] = dose: 200.0 mg/kg/injection, schedule: Q01DX009 (ip), vehicle: saline with Tween-80
[11] = dose: 50.0 mg/kg/injection, schedule: Q01DX005 (ip), vehicle: saline

Measured: T/C

CCC1(O)CC(OC2CC(N(C)C)C(OC3CC4OC5CC(=O)C(C)OC5OC4C(C)O3)C(C)O2)c2c(cc3c(c2O)C(=O)c2c(O)ccc(O)c2C3=O)C1C(=O)OC (stereo not given)
active: dose: 2.0 mg/kg/injection, schedule: Q04DX003 (ip), vehicle: saline with Tween-80 170 % of control
inactive: dose: 0.5 mg/kg/injection, schedule: Q04DX003 (ip), vehicle: other 123 % of control | dose: 0.5 mg/kg/injection, schedule: Q04DX003 (ip), vehicle: saline with Tween-80 112 % of control and 110 % of control and 118 % of control | dose: 0.5 mg/kg/injection, schedule: Q04DX003 (ip), vehicle: water 113 % of control | dose: 0.64 mg/kg/injection, schedule: Q04DX003 (ip), vehicle: water 109 % of control | dose: 1.0 mg/kg/injection, schedule: Q04DX003 (ip), vehicle: water 119 % of control | dose: 1.08 mg/kg/injection, schedule: Q04DX003 (ip), vehicle: water 115 % of control | dose: 1.8 mg/kg/injection, schedule: Q04DX003 (ip), vehicle: water 118 % of control | dose: 1.94 mg/kg/injection, schedule: Q04DX003 (ip), vehicle: water 118 % of control | dose: 3.24 mg/kg/injection, schedule: Q04DX003 (ip), vehicle: water 124 % of control | dose: 5.0 mg/kg/injection, schedule: Q04DX003 (ip), vehicle: water 114 % of control

O=C(CCc1cc2[nH]c1c(-c1ccccc1)c1nc(c(-c3ccccc3)c3ccc([nH]3)c(-c3ccccc3)c3nc(c2-c2ccccc2)C=C3)C=C1)OCCCc1cccnc1
inactive: dose: 50.0 mg/kg/injection, schedule: Q01DX001 (ip), vehicle: Klucel (hydroxypropylcellulose) (HPC) 100 % of control | dose: 100.0 mg/kg/injection, schedule: Q01DX001 (ip), vehicle: Klucel (hydroxypropylcellulose) (HPC) 105 % of control | dose: 200.0 mg/kg/injection, schedule: Q01DX001 (ip), vehicle: Klucel (hydroxypropylcellulose) (HPC) 100 % of control | dose: 400.0 mg/kg/injection, schedule: Q01DX001 (ip), vehicle: Klucel (hydroxypropylcellulose) (HPC) 91 % of control

Nc1n[nH]c(=O)c2cccnc12
inactive: [1] 97 % of control | [2] 99 % of control | [3] 101 % of control

O=c1n(-c2ccccc2)c(=O)n2n1C1C3C4C5C3C2C5(F)C41 (stereo not given)
inactive: dose: 100.0 mg/kg/injection, schedule: Q04DX003 (ip), vehicle: Klucel (hydroxypropylcellulose) (HPC) 103 % of control | dose: 200.0 mg/kg/injection, schedule: Q04DX003 (ip), vehicle: Klucel (hydroxypropylcellulose) (HPC) 104 % of control

O=C(Cc1nc2ccccc2[nH]1)N/N=C1\SCC(=O)N1c1ccc(Cl)cc1
inactive: [4] 103 % of control | [5] 108 % of control | [6] 104 % of control

O=C(O)c1cc(-c2ccc(Cl)cc2)nc2c1ccc1ccccc12
inactive: dose: 25.0 mg/kg/injection, schedule: Q01DX005 (ip), vehicle: Klucel (hydroxypropylcellulose) (HPC) 100 % of control | [4] 100 % of control | [5] 100 % of control

Cn1cnnc1[N+](=O)[O-]
inactive: dose: 25.0 mg/kg/injection, schedule: Q04DX003 (ip), vehicle: saline sonified 100 % of control | dose: 50.0 mg/kg/injection, schedule: Q04DX003 (ip), vehicle: saline sonified 95 % of control | dose: 100.0 mg/kg/injection, schedule: Q04DX003 (ip), vehicle: saline sonified 90 % of control

CCOC(=O)C(CSC(c1ccccc1)(c1ccccc1)c1ccccc1)NC(=O)CCNC(=O)c1ccccc1 (stereo not given)
inactive: dose: 4.0 mg/kg/injection, schedule: Q01DX009 (ip), vehicle: other 96 % of control | dose: 8.0 mg/kg/injection, schedule: Q01DX009 (ip), vehicle: other 112 % of control | dose: 16.0 mg/kg/injection, schedule: Q01DX009 (ip), vehicle: other 101 % of control | dose: 32.0 mg/kg/injection, schedule: Q01DX009 (ip), vehicle: other 96 % of control | dose: 50.0 mg/kg/injection, schedule: Q01DX009 (ip), vehicle: other 104 % of control | dose: 64.0 mg/kg/injection, schedule: Q01DX009 (ip), vehicle: other 98 % of control | dose: 100.0 mg/kg/injection, schedule: Q01DX009 (ip), vehicle: other 95 % of control | dose: 200.0 mg/kg/injection, schedule: Q01DX009 (ip), vehicle: other 90 % of control | dose: 400.0 mg/kg/injection, schedule: Q01DX009 (ip), vehicle: other 95 % of control

Nc1ncnc2nc(-c3ccc(SCc4ccccc4)cc3)[nH]c12
inactive: [7] 95 % of control | [8] 94 % of control | dose: 240.0 mg/kg/injection, schedule: Q01DX005 (ip), vehicle: saline with Tween-80 93 % of control

CP1(=O)CC(=O)CCCCC(=O)C1
inactive: dose: 6.25 mg/kg/injection, schedule: Q01DX009 (ip), vehicle: saline 104 % of control | dose: 12.5 mg/kg/injection, schedule: Q01DX009 (ip), vehicle: saline 114 % of control | dose: 25.0 mg/kg/injection, schedule: Q01DX009 (ip), vehicle: saline 104 % of control | [9] 100 % of control | [10] 98 % of control

CC12CCC(C(Br)C1=O)C2(C)CBr (stereo not given)
inactive: [1] 103 % of control | [2] 104 % of control | [3] 92 % of control

CCOC(=O)Nc1cc(NC/C(=N/O)c2ccc(OC)cc2)c([N+](=O)[O-])c(N)n1
inactive: dose: 12.5 mg/kg/injection, schedule: Q01DX005 (ip), vehicle: saline 98 % of control | dose: 25.0 mg/kg/injection, schedule: Q01DX005 (ip), vehicle: saline 94 % of control | [11] 94 % of control

O=C1C2=C(Nc3cc([N+](=O)[O-])ccc3N2)OC1c1c[nH]c2ccc(COc3ccccc3)cc12 (stereo not given)
inactive: [7] 93 % of control | [8] 94 % of control

O=C(O)C(=O)O.[NH-]C1CCCC1[NH-].[Pt+2] (stereo not given)
active: dose: 12.5 mg/kg/injection, schedule: Q04DX002 (ip), vehicle: saline with Tween-80 166 % of control | dose: 12.5 mg/kg/injection, schedule: Q04DX002 (ip), vehicle: saline 176 % of control

O=C1N/C(=N/OF)C(F)C(NO)N1 (stereo not given)
inactive: dose: 50.0 mg/kg/injection, schedule: Q01DX009 (ip), vehicle: Klucel (hydroxypropylcellulose) (HPC) 103 % of control | dose: 100.0 mg/kg/injection, schedule: Q01DX009 (ip), vehicle: Klucel (hydroxypropylcellulose) (HPC) 103 % of control | dose: 200.0 mg/kg/injection, schedule: Q01DX009 (ip), vehicle: Klucel (hydroxypropylcellulose) (HPC) 101 % of control

CCN(CC)CCSCCCNc1cc(C)nc2c1ccc1c2ccc2c(NCCCSCCN(CC)CC)cc(C)nc21
inactive: dose: 1.56 mg/kg/injection, schedule: Q01DX009 (ip), vehicle: distilled water + Tween-80 100 % of control | dose: 3.12 mg/kg/injection, schedule: Q01DX009 (ip), vehicle: distilled water + Tween-80 102 % of control | dose: 6.25 mg/kg/injection, schedule: Q01DX009 (ip), vehicle: distilled water + Tween-80 104 % of control | dose: 12.5 mg/kg/injection, schedule: Q01DX009 (ip), vehicle: distilled water + Tween-80 100 % of control

CCOCCOCCSCc1ccccn1
inactive: [4] 109 % of control | [5] 99 % of control | [6] 100 % of control

CC1=CSCC(=O)N1
inactive: [9] 104 % of control | [10] 95 % of control

O=COCC1(c2ccncc2)OCCO1
inactive: [11] 108 % of control | dose: 100.0 mg/kg/injection, schedule: Q01DX005 (ip), vehicle: saline 107 % of control | dose: 200.0 mg/kg/injection, schedule: Q01DX005 (ip), vehicle: saline 99 % of control

[O-]c1nc(C(F)(F)F)nc(C(F)(F)F)c1-[n+]1ccccc1
inactive: dose: 60.0 mg/kg/injection, schedule: Q01DX005 (ip), vehicle: Klucel (hydroxypropylcellulose) (HPC) 108 % of control | dose: 120.0 mg/kg/injection, schedule: Q01DX005 (ip), vehicle: Klucel (hydroxypropylcellulose) (HPC) 104 % of control | dose: 240.0 mg/kg/injection, schedule: Q01DX005 (ip), vehicle: Klucel (hydroxypropylcellulose) (HPC) 96 % of control

O=C(c1ccc(C(F)(F)F)cc1)N1C2C3C=CC(C3)C2N1C(=O)c1ccc(C(F)(F)F)cc1 (stereo not given)
inactive: dose: 50.0 mg/kg/injection, schedule: Q04DX002 (ip), vehicle: Klucel (hydroxypropylcellulose) (HPC) 102 % of control | dose: 100.0 mg/kg/injection, schedule: Q04DX002 (ip), vehicle: Klucel (hydroxypropylcellulose) (HPC) 106 % of control | dose: 200.0 mg/kg/injection, schedule: Q04DX002 (ip), vehicle: Klucel (hydroxypropylcellulose) (HPC) 102 % of control

COc1ccc(/C=N/NC(=S)NC23CC4CC(CC(C4)C2)C3)cc1OC
inactive: dose: 15.0 mg/kg/injection, schedule: Q01DX005 (ip), vehicle: saline with Tween-80 93 % of control | dose: 30.0 mg/kg/injection, schedule: Q01DX005 (ip), vehicle: saline with Tween-80 89 % of control | [7] 89 % of control
